Reference: US9328374B2, “Selective culture medium and method for detecting carbapenem-resistant bacteria in a test sample” (Institut National de la Sante et de la Recherche Medicale …, priority 2011, dated 2016)

Legend:
Assay in all cases: MIC of imipenem, ertapenem and meropenem
E. coli = type: cell-based, Escherichia coli
C. freundii = type: cell-based, Citrobacter freundii
P. mirabilis = type: cell-based
E. cloacae = type: cell-based, Enterobacter cloacae
P. rettgeri = type: cell-based, Providencia rettgeri

With `C[C@@H](O)[C@H]1C(=O)N2C(C(=O)O)=C(SCCN=CN)C[C@H]12` [IPM, imipenem] the MIC (E. coli; strain E. coli 1034, TEM-1 + SHV-38, non-carbapenemase producer) was 0.19 µg/mL, the MIC (E. coli; strain E. coli 1048, TEM-1 + SHV-2a, non-carbapenemase producer) was 0.19 µg/mL and the MIC (E. coli; strain E. coli 10121, CTX-M-2, non-carbapenemase producer) was 0.19 µg/mL. The MIC (E. coli; strain E. coli AME, OXA-48 + CTX-M-24) was 0.25 µg/mL, the MIC (E. coli; strain E. coli BON, OXA-48 + TEM-1 + CTX-M-24) was 0.38 µg/mL and the MIC (E. coli; strain E. coli BOU, OXA-48 + CTX-M-15) was 0.5 µg/mL. It also gave an MIC (E. coli; strain E. coli ECA, ACC-1, non-carbapenemase producer) of 0.12 µg/mL, an MIC (E. coli; strain E. coli EVB, VEB-1, non-carbapenemase producer) of 0.12 µg/mL and an MIC (E. coli; strain E. coli FOR, CTX-M-15, non-carbapenemase producer) of 0.12 µg/mL. The MIC (E. coli; strain E. coli HB4, (OmpC-, OmpF-), non-carbapenemase producer) was 0.12 µg/mL, the MIC (E. coli; strain E. coli JAP, IMP-1) was 0.5 µg/mL and the MIC (E. coli; strain E. coli MAR, Overexpressed AmpC, non-carbapenemase producer) was 16 µg/mL. The MIC (E. coli; strain E. coli MET, Chromosome-encoded extended-spectrum cephalosporinase, non-carbapenemase producer) was 0.12 µg/mL, the MIC (E. coli; strain E. coli ROB, OXA-48) was 0.5 µg/mL and the MIC (E. coli; strain E. coli SYD, CMY-2, non-carbapenemase producer) was 0.12 µg/mL. The MIC (C. freundii; C. freundii 1003, CTX-M-15 + TEM-1, non-carbapenemase producer) was 0.38 µg/mL, the MIC (C. freundii; C. freundii 7767 (wild type)) was 0.25 µg/mL and the MIC (C. freundii; C. freundii 7767, (wild type), non-carbapenemase producer) was 0.25 µg/mL. For the same compound, the MIC (C. freundii; C. freundii 10107 (TEM-1 + SHV-12)) was 0.38 µg/mL, the MIC (C. freundii; C. freundii 10107, TEM-1 + SHV-12, non-carbapenemase producer) was 0.38 µg/mL and the MIC (C. freundii; C. freundii 10135 (CTX-M-15)) was 0.38 µg/mL. For the same compound, the MIC (C. freundii; C. freundii 10135, CTX-M-15, non-carbapenemase producer) was 0.38 µg/mL, the MIC (C. freundii; C. freundii MAU (Overexpressed AmpC + TEM-3)) was 1 µg/mL and the MIC (C. freundii; C. freundii MAU, Overexpressed AmpC + TEM-3, non-carbapenemase producer) was 1 µg/mL. For the same compound, the MIC (C. freundii; C. freundii STE (NDM-1 + OXA-1 + OXA-9 + OXA-10 + CTX-M-15 + TEM-1)) was >32 µg/mL, the MIC (C. freundii; C. freundii STE, NDM-1 + TEM-1 + CTX-M-15 + VIM-4 + OXA-1 + OXA-9 + OXA-10 + OXA-181) was >32 µg/mL and the MIC (C. freundii; strain C. freundii 10107, TEM-1 + SHV-12, non-carbapenemase producer) was 0.38 µg/mL. For the same compound, the MIC (C. freundii; strain C. freundii 10135, CTX-M-15, non-carbapenemase producer) was 0.38 µg/mL, the MIC (C. freundii; strain C. freundii MAU, Overexpressed AmpC + TEM-3, non-carbapenemase producer) was 1 µg/mL and the MIC (P. mirabilis; P. mirabilis 1031 (CTX-M-14 + TEM-1 + SHV-11)) was 1.5 µg/mL. It also gave an MIC (P. mirabilis; P. mirabilis 1031, CTX-M-14 + TEM-1 + SHV-11, non-carbapenemase producer) of 1.5 µg/mL, an MIC (P. mirabilis; P. mirabilis PMA (ACC-1)) of 0.25 µg/mL and an MIC (P. mirabilis; P. mirabilis PMA, ACC-1, non-carbapenemase producer) of 0.25 µg/mL. It also gave an MIC (E. cloacae; E. cloacae 501, OXA-48 + TEM-1 + CTX-M-15) of 1 µg/mL, an MIC (E. cloacae; E. cloacae 1012, TEM-1 + SHV-12, non-carbapenemase producer) of 0.19 µg/mL and an MIC (E. cloacae; E. cloacae 1019, TEM-1, non-carbapenemase producer, overexpressed AmpC) of 0.25 µg/mL. It also gave an MIC (E. cloacae; E. cloacae 1027, TEM-1 + CTX-M-15, non-carbapenemase producer) of 0.19 µg/mL, an MIC (E. cloacae; E. cloacae 1072, TEM-1 + OXA-1, non-carbapenemase producer, overexpressed AmpC) of 0.38 µg/mL and an MIC (E. cloacae; E. cloacae 5434 (wild type)) of 0.38 µg/mL. The MIC (E. cloacae; E. cloacae 5434, (wild type), non-carbapenemase producer) was 0.38 µg/mL, the MIC (E. cloacae; E. cloacae 7725, (wild type), non-carbapenemase producer) was 0.19 µg/mL and the MIC (E. cloacae; E. cloacae 7746, (wild type), non-carbapenemase producer) was 0.38 µg/mL. For the same compound, the MIC (E. cloacae; E. cloacae 10111 (TEM-1 + CTX-M-15)) was 0.5 µg/mL, the MIC (E. cloacae; E. cloacae 10111, TEM-1 + CTX-M-15, non-carbapenemase producer, overexpressed AmpC) was 0.5 µg/mL and the MIC (E. cloacae; E. cloacae 1008029, VIM-1+ CTX-M-3) was >32 µg/mL. For the same compound, the MIC (E. cloacae; E. cloacae 1008079, IMP-1) was 8 µg/mL, the MIC (E. cloacae; E. cloacae 1008187, IMP-1 + CTX-M-15) was 8 µg/mL and the MIC (E. cloacae; E. cloacae (KPC-2)) was 4 µg/mL. It also gave an MIC (E. cloacae; E. cloacae ARF (overexpressed AmpC)) of 0.12 µg/mL, an MIC (E. cloacae; E. cloacae ARF, Overexpressed AmpC, non-carbapenemase producer) of 0.12 µg/mL and an MIC (E. cloacae; E. cloacae AZA (overexpressed AmpC)) of 0.12 µg/mL. For the same compound, the MIC (E. cloacae; E. cloacae AZA, Overexpressed AmpC, non-carbapenemase producer) was 0.12 µg/mL, the MIC (E. cloacae; E. cloacae BEU, OXA-48 + TEM-1 + CTX-M-15 + SHV-12) was 0.5 µg/mL and the MIC (E. cloacae; E. cloacae BLA (overexpressed AmpC)) was 0.12 µg/mL. It also gave an MIC (E. cloacae; E. cloacae BLA, Overexpressed AmpC, non-carbapenemase producer) of 0.12 µg/mL, an MIC (E. cloacae; E. cloacae CFVL, KPC-2 + TEM-3) of 4 µg/mL and an MIC (E. cloacae; E. cloacae CLO (CTX-M-15)) of 0.12 µg/mL. For the same compound, the MIC (E. cloacae; E. cloacae CLO, CTX-M-15, non-carbapenemase producer) was 0.12 µg/mL, the MIC (E. cloacae; E. cloacae CON (overexpressed AmpC)) was 0.12 µg/mL and the MIC (E. cloacae; E. cloacae CON, Overexpressed AmpC, non-carbapenemase producer) was 0.25 µg/mL. For the same compound, the MIC (E. cloacae; E. cloacae CVB (VEB-1)) was 0.12 µg/mL, the MIC (E. cloacae; E. cloacae CVB, VEB-1, non-carbapenemase producer) was 0.12 µg/mL and the MIC (E. cloacae; E. cloacae HMG, KPC-2 + TEM-1) was 24 µg/mL. For the same compound, the MIC (E. cloacae; E. cloacae HPTU (KPC-2 + TEM-1 + SHV-11)) was 2 µg/mL, the MIC (E. cloacae; E. cloacae HPTU, KPC-2 + TEM-1 + SHV-11) was 2 µg/mL and the MIC (E. cloacae; E. cloacae IR38 (NDM-1 + CTX-M-15)) was 2 µg/mL. For the same compound, the MIC (E. cloacae; E. cloacae IR38, NDM-1 + CTX-M-15) was 2 µg/mL, the MIC (E. cloacae; E. cloacae KAR, VIM-1+ SHV-70) was 1 µg/mL and the MIC (E. cloacae; E. cloacae TAW (IMP-8 + SHV-12)) was 0.75 µg/mL. For the same compound, the MIC (E. cloacae; E. cloacae TAW, IMP-8 + SHV-12) was 0.75 µg/mL, the MIC (E. cloacae; E. cloacae TUR (OXA-48 + SHV-5)) was 0.5 µg/mL and the MIC (E. cloacae; E. cloacae TUR, OXA-48 + SHV-5) was 0.5 µg/mL. For the same compound, the MIC (E. cloacae; E. cloacae TWA, IMP-8) was 1.5 µg/mL, the MIC (E. cloacae; strain E. cloacae 10111, TEM-1 + CTX-M-15, non-carbapenemase producer) was 0.5 µg/mL and the MIC (E. cloacae; strain E. cloacae BLA, Overexpressed AmpC, non-carbapenemase producer) was 0.12 µg/mL. It also gave an MIC (E. cloacae; strain E. cloacae CLO, CTX-M-15, non-carbapenemase producer) of 0.12 µg/mL, an MIC (E. cloacae; strain E. cloacae CON, Overexpressed AmpC, non-carbapenemase producer) of 0.12 µg/mL and an MIC (E. cloacae; strain E. cloacae CVB, VEB-1, non-carbapenemase producer) of 0.12 µg/mL. It also gave an MIC (E. cloacae; strain E. cloacae HPTU, KPC-2 + TEM-1 + SHV-11) of 2 µg/mL, an MIC (E. cloacae; strain E. cloacae TAW, IMP-8 + SHV-12) of 0.75 µg/mL and an MIC (E. cloacae; strain E. cloacae TUR, OXA-48 + SHV-5) of 0.5 µg/mL. For the same compound, the MIC (P. rettgeri; P. rettgeri RAP (OXA-181 + OXA-1)) was 8 µg/mL, the MIC (P. rettgeri; P. rettgeri RAP, OXA-181 + OXA-1) was 8 µg/mL and the MIC (P. rettgeri; strain P. rettgeri RAP, OXA-181 + OXA-1) was 8 µg/mL.
